This passage reports pest or weed control results from patent publication US12077503B2, “Substituted cyclic amides and their use as herbicides” (FMC CORPORATION, priority 2015, dated 2024).

Where two headings read alike, the source gives them in different places.

Holding throughout (type): in vivo
For assay [1], the system named is ragweed (common ragweed, Ambrosia elatior). Nature of the assay: Test A preemergence. Conditions: Ambrosia artemisiifolia, pre-emergence, 240 h; for pest or weed control at 125 g/ha: 125 g ai/ha; for pest or weed control at 500 g/ha: 500 g ai/ha. An outline of the steps:
(§1)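 In a loam soil and sand blend, planted seeds got a preemergence directed soil spray, and young plants at the one- to two-leaf stage, 2–10 cm high, got a postemergence application; ~10 d greenhouse hold; injury rated visually, 0 = none, 100 = complete control.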

For assay [2], the system named is barnyardgrass (Echinochloa crus-galli). Nature of the assay: Test A preemergence. Conditions: Echinochloa crus-galli, pre-emergence, 240 h; for pest or weed control at 125 g/ha: 125 g ai/ha; for pest or weed control at 500 g/ha: 500 g ai/ha. An outline of the steps: as §1
The subject of assay [3] is pigweed (Amaranthus retroflexus). Nature of the assay: Test A preemergence. Conditions: Amaranthus retroflexus, pre-emergence, 240 h; for pest or weed control at 125 g/ha: 125 g ai/ha; for pest or weed control at 500 g/ha: 500 g ai/ha.
The test system of assay [4] is ryegrass, Italian (Italian ryegrass, Lolium multiflorum). Nature of the assay: Test A preemergence. To be noted: Lolium multiflorum, pre-emergence, 240 h; for pest or weed control at 125 g/ha: 125 g ai/ha. An outline of the steps:
as §1

The test system of the next assay is Kochia (Kochia scoparia). The experiment in a line: Test A preemergence. To be noted: Bassia scoparia, pre-emergence, 240 h; for pest or weed control at 125 g/ha: 125 g ai/ha; for pest or weed control at 500 g/ha: 500 g ai/ha. An outline of the steps: as §1
The test system of assay [5] is giant foxtail (Setaria faberii). The experiment in a line: Test A preemergence. Conditions: Setaria faberi, pre-emergence, 240 h; for pest or weed control at 125 g/ha: 125 g ai/ha; for pest or weed control at 500 g/ha: 500 g ai/ha. An outline of the steps:
as §1

In assay [6] the test system is barnyardgrass (Echinochloa crus-galli). The experiment in a line: Test B flooded paddy test. To be noted: Echinochloa crus-galli, 250 g ai/ha, Flood; 0 to 100 scale where 0 is no effect and 100 is complete control; read-out: Barnyardgrass plant response rating. An outline of the steps:
(§2)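 2-leaf plants; pots flooded 3 cm over soil; cpd added to paddy water; depth held; greenhouse 13–15 d; visual rating vs controls, 0 = no effect, 100 = complete control.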

A further assay relates to rice (Oryra sativa). Nature of the assay: Test B flooded paddy test. Conditions: Oryza sativa, 250 g ai/ha, Flood; 0 to 100 scale where 0 is no effect and 100 is complete control; read-out: Rice plant response rating. An outline of the steps:
as §2

The subject of assay [7] is sedge, umbrella (small-flower umbrella sedge, Cyperus difformis). The experiment in a line: Test B flooded paddy test. To be noted: Cyperus difformis, 250 g ai/ha, Flood. An outline of the steps:
as §2

The test system of assay [8] is ducksalad (Heteranthera limosa). The experiment in a line: Test B flooded paddy test. Conditions: Heteranthera limosa, 250 g ai/ha, Flood; 0 to 100 scale where 0 is no effect and 100 is complete control; read-out: Ducksalad plant response rating. An outline of the steps:
as §2

In assay [9] the test system is barnyardgrass (Echinochloa crus-galli). The experiment in a line: Test A postemergence. Conditions: Echinochloa crus-galli, post-emergence, 240 h, Postemergence; for pest or weed control at 125 g/ha: 125 g ai/ha, visual rating about 10 d after treatment, read-out: Barnyardgrass plant response rating (0 to 100 scale, 0 no effect, 100 complete control); for pest or weed control at 500 g/ha: 500 g ai/ha, visual injury, 0 to 100 scale (0 no effect, 100 complete control), approx. 10 d, read-out: Plant response rating, Barnyardgrass. An outline of the steps:
as §1

For assay [10], the system named is pigweed (Amaranthus retroflexus). The experiment in a line: Test A postemergence. Conditions: Amaranthus retroflexus, post-emergence, 240 h, Postemergence; for pest or weed control at 125 g/ha: 125 g ai/ha, visual rating about 10 d after treatment, read-out: Pigweed plant response rating (0 to 100 scale); for pest or weed control at 500 g/ha: 500 g ai/ha, visual injury, 0 to 100 scale (0 no effect, 100 complete control), approx. 10 d, read-out: Plant response rating, Pigweed. An outline of the steps:
as §1

Assay [11] deals with ryegrass, Italian (Italian ryegrass, Lolium multiflorum). The experiment in a line: Test A postemergence. Conditions: Lolium multiflorum, post-emergence, 240 h, Postemergence; for pest or weed control at 125 g/ha: 125 g ai/ha, visual rating about 10 d after treatment, read-out: Ryegrass, Italian plant response rating (0 to 100 scale); for pest or weed control at 500 g/ha: 500 g ai/ha, visual injury, 0 to 100 scale (0 no effect, 100 complete control), approx. 10 d, read-out: Plant response rating, Ryegrass, Italian. An outline of the steps: as §1

Assay [12] has as its system giant foxtail (Setaria faberii). Nature of the assay: Test A postemergence. To be noted: Setaria faberi, post-emergence, 240 h, Postemergence; for pest or weed control at 125 g/ha: 125 g ai/ha, visual rating about 10 d after treatment, read-out: Foxtail, Giant plant response rating (0 to 100 scale); for pest or weed control at 500 g/ha: 500 g ai/ha, visual injury, 0 to 100 scale (0 no effect, 100 complete control), approx. 10 d, read-out: Plant response rating, Foxtail, Giant. An outline of the steps:
as §1

[13] abbreviates: preemergence, 0 to 100 scale where 0 is no effect and 100 is complete control, read-out: Ragweed plant response rating.
Where [14] appears, read: preemergence, 0 to 100 scale where 0 is no effect and 100 is complete control, read-out: Barnyardgrass plant response rating.
Where [15] appears, read: preemergence, 0 to 100 scale where 0 is no effect and 100 is complete control, read-out: Pigweed plant response rating.
Where [16] appears, read: preemergence, 0 to 100 scale where 0 is no effect and 100 is complete control, read-out: Kochia plant response rating.
The mark [17] stands for this setting: preemergence, 0 to 100 scale where 0 is no effect and 100 is complete control, read-out: Foxtail, Giant plant response rating.

Turning to `CN1CC(c2cccc(OCC=C(Cl)Cl)c2)C(C(=O)Nc2cccc(F)c2F)C1=O` (centres unmarked) [Compound 1303], the pest or weed control at 125 g/ha in assay [1] (preemergence, visual injury rating, 0 to 100 scale where 0 is no effect and 100 is complete control, approximately 10 d, read-out: Ragweed plant response rating) amounted to 0%; in assay [2] (preemergence, visual injury rating, 0 to 100 scale where 0 is no effect and 100 is complete control, approximately 10 d, read-out: Barnyardgrass plant response rating), 0%; in [3] (preemergence, visual injury rating, 0 to 100 scale where 0 is no effect and 100 is complete control, approximately 10 d, read-out: Pigweed plant response rating) it was 0%; in [4] (preemergence, visual injury rating, 0 to 100 scale where 0 is no effect and 100 is complete control, approximately 10 d, read-out: Ryegrass, Italian plant response rating) it was 0%; with Kochia (Kochia scoparia) (preemergence, visual injury rating, 0 to 100 scale where 0 is no effect and 100 is complete control, approximately 10 d, read-out: Kochia plant response rating), 0%; in assay [5] (preemergence, visual injury rating, 0 to 100 scale where 0 is no effect and 100 is complete control, approximately 10 d, read-out: Foxtail, Giant plant response rating), 40%. The pest or weed control at 125 g/ha stood at 0% in [9], 0% in [10], 0% in [11] and 40% in [12]. Besides, the pest or weed control at 500 g/ha in [1] (setting [13]) amounted to 0%; in assay [2] (setting [14]), 30%; in assay [3] (setting [15]), 30%; in assay [4] (500 g ai/ha, preemergence, 0 to 100 scale where 0 is no effect and 100 is complete control, read-out: Ryegrass, Italian plant response rating) it was 0%; in the assay on Kochia (Kochia scoparia) (setting [16]) it was 0%; in [5] (setting [17]), 90%. In addition, the pest or weed control at 500 g/ha in assay [9] was found to be 30%; in [10], 0%; in assay [11], 0%; in assay [12], 60%. Further, the pest or weed control at 250 g/ha in assay [6] stood at 0%; in the assay on rice (Oryra sativa), 0%; in assay [7] (0 to 100 scale where 0 is no effect and 100 is complete control, read-out: Sedge, Umbrella plant response rating), 0%; in assay [8], 0%.

Regarding `CN1C[C@H](c2cccc(C(C)(F)F)c2)[C@@H](C(=O)Nc2ccccc2F)C1=O` [Compound 1317], the pest or weed control at 500 g/ha in [1] (setting [13]) amounted to 40%; in [2] (setting [14]), 90%; in [3] (setting [15]) it was 60%; in the assay with Kochia (Kochia scoparia) (setting [16]), 80%; in assay [5] (setting [17]), 100%; in assay [9], 90%. Further, the pest or weed control at 500 g/ha turned out to be 20% in assay [10], 80% in [11] and 90% in [12]. Besides, the pest or weed control at 125 g/ha is 0% in assay [1] (Preemergence, 0 to 100 scale (0 no effect, 100 complete control), read-out: Plant response rating, Ragweed); 90% in [2] (Preemergence, 0 to 100 scale (0 no effect, 100 complete control), read-out: Plant response rating, Barnyardgrass); 0% in assay [3] (Preemergence, 0 to 100 scale (0 no effect, 100 complete control), read-out: Plant response rating, Pigweed); 20% in assay [4] (Preemergence, 0 to 100 scale (0 no effect, 100 complete control), read-out: Plant response rating, Ryegrass, Italian); 60% in the assay on Kochia (Kochia scoparia) (Preemergence, 0 to 100 scale (0 no effect, 100 complete control), read-out: Plant response rating, Kochia); 90% in assay [5] (Preemergence, 0 to 100 scale (0 no effect, 100 complete control), read-out: Plant response rating, Foxtail, Giant). Moreover, the pest or weed control at 125 g/ha in assay [9] is 90%; in [10], 30%; in assay [11], 40%; in assay [12], 90%. Further, the pest or weed control at 250 g/ha came out at 85% in assay [6]; 0% with rice (Oryra sativa); 0% in [7] (360 h, visually evaluated after 13 to 15 d, read-out: Plant response rating, Sedge, Umbrella (0 to 100 scale where 0 is no effect and 100 is complete control)); 100% in assay [8].
